Patent US11179383B2 (Gilead Sciences, Inc., priority 2018, dated 2021)

Target: T1, α4β7 integrin (Homo sapiens, UniProt P13612+P26010)
T1 construct: monitoring the capture of α4β7 integrin expressing cells on a recombinant MadCAM-1 extracellular domain-coated plate; endogenous in cells; host or cells: RPMI8866 cells
T1 sequence (P13612 34-1032): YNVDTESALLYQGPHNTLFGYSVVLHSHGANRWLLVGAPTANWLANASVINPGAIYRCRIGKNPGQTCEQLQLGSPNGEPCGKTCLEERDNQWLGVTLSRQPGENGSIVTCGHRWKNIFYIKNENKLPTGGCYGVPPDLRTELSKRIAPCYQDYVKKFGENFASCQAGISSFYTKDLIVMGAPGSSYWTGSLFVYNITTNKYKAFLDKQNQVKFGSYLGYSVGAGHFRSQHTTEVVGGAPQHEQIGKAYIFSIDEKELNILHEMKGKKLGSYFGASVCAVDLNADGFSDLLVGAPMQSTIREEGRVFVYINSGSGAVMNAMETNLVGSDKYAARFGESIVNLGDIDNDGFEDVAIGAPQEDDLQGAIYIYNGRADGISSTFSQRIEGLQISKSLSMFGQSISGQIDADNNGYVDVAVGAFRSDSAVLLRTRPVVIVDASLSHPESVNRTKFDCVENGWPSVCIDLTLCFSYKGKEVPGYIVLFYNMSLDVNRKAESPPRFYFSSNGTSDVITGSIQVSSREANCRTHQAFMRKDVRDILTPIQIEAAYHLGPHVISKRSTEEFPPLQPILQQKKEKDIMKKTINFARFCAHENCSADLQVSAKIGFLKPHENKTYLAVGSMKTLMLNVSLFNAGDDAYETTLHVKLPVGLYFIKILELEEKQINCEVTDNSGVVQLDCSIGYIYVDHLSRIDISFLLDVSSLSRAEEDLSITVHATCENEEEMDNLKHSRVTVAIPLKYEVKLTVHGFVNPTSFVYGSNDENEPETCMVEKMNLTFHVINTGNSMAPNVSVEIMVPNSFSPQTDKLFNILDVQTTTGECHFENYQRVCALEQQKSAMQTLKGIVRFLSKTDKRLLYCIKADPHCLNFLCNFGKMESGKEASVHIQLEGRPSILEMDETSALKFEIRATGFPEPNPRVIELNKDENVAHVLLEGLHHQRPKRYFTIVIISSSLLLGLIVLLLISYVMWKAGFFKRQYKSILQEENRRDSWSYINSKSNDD
T1 sequence (P26010 20-798): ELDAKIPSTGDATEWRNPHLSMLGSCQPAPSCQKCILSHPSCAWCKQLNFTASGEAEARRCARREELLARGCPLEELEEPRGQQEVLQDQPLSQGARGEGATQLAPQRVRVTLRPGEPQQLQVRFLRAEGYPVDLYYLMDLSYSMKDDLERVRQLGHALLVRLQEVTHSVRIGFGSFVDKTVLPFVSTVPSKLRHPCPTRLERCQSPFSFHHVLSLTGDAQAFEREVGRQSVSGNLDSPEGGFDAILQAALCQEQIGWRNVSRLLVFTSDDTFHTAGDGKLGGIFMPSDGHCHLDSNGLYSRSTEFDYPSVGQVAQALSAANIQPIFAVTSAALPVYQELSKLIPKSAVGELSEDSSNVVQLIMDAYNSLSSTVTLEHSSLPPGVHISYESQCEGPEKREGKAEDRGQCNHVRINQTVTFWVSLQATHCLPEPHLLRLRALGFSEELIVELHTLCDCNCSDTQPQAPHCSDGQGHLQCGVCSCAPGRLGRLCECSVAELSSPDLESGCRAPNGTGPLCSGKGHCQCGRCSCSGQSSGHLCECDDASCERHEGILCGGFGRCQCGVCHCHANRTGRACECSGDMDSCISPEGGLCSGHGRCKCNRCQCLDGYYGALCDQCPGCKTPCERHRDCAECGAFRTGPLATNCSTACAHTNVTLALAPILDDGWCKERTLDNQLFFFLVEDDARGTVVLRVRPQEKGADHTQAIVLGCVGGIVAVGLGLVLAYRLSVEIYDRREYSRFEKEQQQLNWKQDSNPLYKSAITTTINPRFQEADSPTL
Assay: α4β7 Integrin Cell Capture Assay
Type: cell-based
Conditions: capture of α4β7 integrin expressing RPMI8866 cells on recombinant MadCAM-1 extracellular domain-coated plate; DMEM+0.5% FBS+0.5 mM MnCl2; read-out: EC50 α4β7
Summary of the method: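 RPMI8866 cells in DMEM + 0.5% FBS + 0.5 mM MnCl2 preincubated with compound 1 h at 37 °C, then allowed to bind 30 min at 37 °C to plates coated with MAdCAM-1 extracellular domain (1.0 μg/mL). Cells fixed with glutaraldehyde, Hoechst-stained, imaged and bound cells counted; EC50 from cell count versus concentration.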

SMILES	EC50 [nM]
Cn1cc(F)cc(-c2ccc(C[C@H](NC(=O)c3c(Cl)cccc3Cl)C(=O)O)c3ncccc23)c1=O [Example 19, (S)-2-(2,6-dichlorobenzamido)-3-(5-(5-fluoro-1-methyl-2-oxo-1,2-dihydropyridin-3-yl)quinolin-8-yl)propanoic acid]	26.3
Cc1c(-c2ccc(C[C@H](NC(=O)c3c(Cl)cccc3Cl)C(=O)O)c3ncccc23)c(=O)n(C)c2ccc(Br)cc12 [Example 70, (S)-3-(6-bromo-1,4-dimethyl-2-oxo-1,2-dihydro-[3,5′-biquinolin]-8′-yl)-2-(2,6-dichlorobenzamido)propanoic acid]	55.1
O=C(N[C@@H](Cc1ccc(-c2c(Cl)cc(F)cc2Cl)c2nsnc12)C(=O)O)c1c(F)cccc1F [Example 150, (S)-3-(7-(2,6-dichloro-4-fluorophenyl)benzo[c][1,2,5]thiadiazol-4-yl)-2-(2,6-difluorobenzamido)propanoic acid]	181
Cc1c(-c2ccc(C[C@H](NC(=O)c3c(Cl)cccc3Cl)C(=O)O)c3ncccc23)c(=O)n(C)c2ccc(Cl)cc12 (single isomer, unassigned) [Example 76]	55.7
CCOCc1cc(OC)c(-c2ccc(C[C@H](NC(=O)c3c(Cl)cccc3Cl)C(=O)O)c3nc(C)oc23)c(OC)c1 [Example 153, (S)-2-(2,6-dichlorobenzamido)-3-(7-(4-(ethoxymethyl)-2,6-dimethoxyphenyl)-2-methylbenzo[d]oxazol-4-yl)propanoic acid]	28.4
Cn1c(=O)c(-c2ccc(C[C@H](NC(=O)c3c(Cl)cccc3Cl)C(=O)O)c3ncccc23)c(C(F)(F)F)c2cc(Br)ccc21 [Example 58, (S)-3-(6-bromo-1-methyl-2-oxo-4-(trifluoromethyl)-1,2-dihydro-[3,5′-biquinolin]-8′-yl)-2-(2,6-dichlorobenzamido)propanoic acid]	19.2
COc1cc(F)cc(C(F)(F)F)c1-c1ccc(C[C@H](NC(=O)c2c(Cl)cccc2Cl)C(=O)O)c2ncccc12 (single isomer, unassigned) [Example 49]	46.2
O=C(N[C@@H](Cc1ccc(-c2cc(F)c(F)cc2OC2CC2)c2cccnc12)C(=O)O)c1c(F)cccc1F [Example 83, (S)-3-(5-(2-cyclopropoxy-4,5-difluorophenyl)quinolin-8-yl)-2-(2,6-difluorobenzamido)propanoic acid]	109
Cc1cc(C(F)(F)F)c(-c2ccc(C[C@H](NC(=O)c3c(Cl)cccc3Cl)C(=O)O)c3ncccc23)nn1 [Example 16, (S)-2-(2,6-dichlorobenzamido)-3-(5-(6-methyl-4-(trifluoromethyl)pyridazin-3-yl)quinolin-8-yl)propanoic acid]	144
CCOCc1cc(OC)c(-c2ccc(CC(NC(=O)c3c(F)cc(NS(=O)(=O)c4ccc(-c5ccnc(F)c5)cc4)cc3F)C(=O)O)c3c2cnn3C)c(OC)c1 (stereo not drawn) [Example 143, 2-(2,6-difluoro-4-((4-(2-fluoropyridin-4-yl)phenyl)sulfonamido)benzamido)-3-(4-(4-(ethoxymethyl)-2,6-dimethoxyphenyl)-1-methyl-1H-indazol-7-yl)propanoic acid]	30.2
O=C(N[C@@H](Cc1ccc(-c2c(Cl)cc(F)cc2Cl)c2cccnc12)C(=O)O)c1c(Cl)cccc1Cl [Example 7, (S)-3-(5-(2,6-dichloro-4-fluorophenyl)quinolin-8-yl)-2-(2,6-dichlorobenzamido)propanoic acid]	522
COc1cc(F)cnc1-c1ccc(C[C@H](NC(=O)c2c(Cl)cccc2Cl)C(=O)O)c2ncccc12 [Example 13, (S)-2-(2,6-dichlorobenzamido)-3-(5-(5-fluoro-3-methoxypyridin-2-yl)quinolin-8-yl)propanoic acid]	66.9
O=C(N[C@@H](Cc1ccc(-c2ccc(F)cc2Cl)c2c(Cl)ccnc12)C(=O)O)c1c(F)cccc1F [Example 90, (S)-3-(4-chloro-5-(2-chloro-4-fluorophenyl)quinolin-8-yl)-2-(2,6-difluorobenzamido)propanoic acid]	4280
O=C(N[C@@H](Cc1ccc(-c2ncc3ccccc3c2C(F)(F)F)c2ccccc12)C(=O)O)c1c(Cl)cccc1Cl [Example 115, (S)-2-(2,6-dichlorobenzamido)-3-(4-(4-(trifluoromethyl)isoquinolin-3-yl)naphthalen-1-yl)propanoic acid]	21.7
Cc1ccn(C)c(=O)c1-c1ccc(CC(NC(=O)c2c(Cl)cccc2Cl)C(=O)O)c2ncccc12 (stereo not drawn) [Example 30, 2-(2,6-Dichlorobenzamido)-3-(5-(1,4-dimethyl-2-oxo-1,2-dihydropyridin-3-yl)quinolin-8-yl)propanoic acid]	46.4

These reach a lower EC50. Values come first.

EC50 [nM]	SMILES
4	Cc1c(-c2ccc(C[C@H](NC(=O)c3c(Cl)cccc3Cl)C(=O)O)c3ncccc23)c(=O)n(C)c2ccccc12 [Example 34, (S)-2-(2,6-dichlorobenzamido)-3-(1,4-dimethyl-2-oxo-1,2-dihydro-[3,5′-biquinolin]-8′-yl)propanoic acid]
3	Cc1cc(C(F)(F)F)c(-c2ccc(C[C@H](NC(=O)c3c(F)cc(N4CCOC[C@@H]4C(F)(F)F)cc3F)C(=O)O)c3ncccc23)c(=O)n1C (single isomer, unassigned) [Example 85]
2.9	Cc1c(-c2ccc(C[C@H](NC(=O)c3c(F)cc(N4CCOC[C@@H]4C(F)(F)F)cc3F)C(=O)O)c3ncccc23)c(=O)n(C)c2ccc(F)cc12 (single isomer, unassigned) [Example 87]
1.7	CCOCc1cc(OC)c(-c2ccc(C[C@@H](NC(=O)c3c(F)cc(NS(=O)(=O)c4ccc(-c5ccnc(F)c5)cc4)cc3F)C(=O)O)c3ccncc23)c(OC)c1 (single isomer, unassigned) [Example 162]
1.6	CCOCc1cc(OC)c(-c2ccc(C[C@H](NC(=O)c3c(F)cc(NS(=O)(=O)c4ccc(-c5ccnc(F)c5)cc4)cc3F)C(=O)O)c3nccnc23)c(OC)c1 [Example 155, (S)-2-(2,6-difluoro-4-((4-(2-fluoropyridin-4-yl)phenyl)sulfonamido)benzamido)-3-(8-(4-(ethoxymethyl)-2,6-dimethoxyphenyl)quinoxalin-5-yl)propanoic acid]
1.1	Cc1ccnc(-c2ccc(C[C@H](NC(=O)c3c(F)cc(N4CCOC[C@@H]4C(F)(F)F)cc3F)C(=O)O)c3ccccc23)c1C(F)(F)F [Example 122]
0.5	CC[C@@H](Nc1cc(F)c(C(=O)N[C@@H](Cc2ccc(-c3c(C)cc(C)n(C)c3=O)c3ccccc23)C(=O)O)c(F)c1)C(F)(F)F (single isomer, unassigned) [Example 133]
0.4	Cc1cc(C)n(C)c(=O)c1-c1ccc(C[C@H](NC(=O)c2c(F)cc(N3CCOC[C@@H]3C(F)(F)F)cc2F)C(=O)O)c2ccccc12 (single isomer, unassigned) [Example 127]
0.1	Cn1c(=O)c(-c2ccc(C[C@H](NC(=O)c3c(F)cc(N4CCOC[C@@H]4C(F)(F)F)cc3F)C(=O)O)c3ccccc23)cc2cnccc21 [Example 140, (S)-2-(2,6-difluoro-4-((R)-3-(trifluoromethyl)morpholino)benzamido)-3-(4-(1-methyl-2-oxo-1,2-dihydro-1,6-naphthyridin-3-yl)naphthalen-1-yl)propanoic acid]
